In brackets after ≈: the same amount, converted by molar mass.
Experiments:
[1] = Solubility study of Compound (II) in lipid excipients and surfactants; assay type: physicochemical; conditions: for solubility: thermodynamic from solid
Method: Compound (II) HCl and Compound (II) free base was weighed into vials and the appropriate amount of excipient was added to achieve the desired concentration. Heating and sonication was used, if necessary, to achieve clear solutions. Limits of solubility of Compound (II) free base and Compound (II) HCl (amorphous form) are noted in Table 1.

[2] = Binary stressed-stability / compatibility study with excipients; assay type: physicochemical; conditions: in contact with Maisine 35-1 and Gelucire 44/14 (70:30 w/w)
Excerpt: The compatibility of Compound ([…]) with the following solubilizing/emulsifying excipients: Maisine 35-1; Gelucire 44/14; sodium oleate; sodium stearate; vitamin E TPGS; lysine; and sodium EDTA.

[3] = physchem; conditions: oil or lipid
Method: (§1) A further solubility study of Compound (II) was conducted using lipid excipients and surfactants. Maisine 35-1 (glycerol linoleates):Gelucire 44/14 (lauroyl macrogol-32 glycerides):Lauroglycol 90 (propylene glycol monolaurate) mixtures were tested to explore the optimal combination. The following ranges of each substance were tested: (1) 40-80% (w/w) Maisine 35-1; (2) 20-40% (w/w) Gelucire 44/14; and (3) 0-20% (w/w) Lauroglycol 90.

[4] = Further solubility study in Maisine 35-1:Gelucire 44/14:Lauroglycol 90 mixtures; conditions: 40-80% (w/w) Maisine 35-1; 20-40% Gelucire 44/14; 0-20% Lauroglycol 90
Method: as §1

With `C[C@H](CCOc1cccc(CC(=O)O)c1)N(Cc1cccc(C(F)(F)F)c1Cl)CC(c1ccccc1)c1ccccc1` [Compound (II), 2-{3-[(3R)-3-({[2-chloro-3-(trifluoromethyl)phenyl]methyl}(2,2-diphenylethyl)amino)butoxy]phenyl}acetic acid] the solubility ([1]; aqueous with cosolvent or surfactant or cyclodextrin, excipient Tween-20, read-out: Limit of solubility in Tween-20) was over 200 mg/mL, the solubility ([1]; aqueous with cosolvent or surfactant or cyclodextrin, excipient Tween-80, read-out: Limit of solubility in Tween-80) was over 200 mg/mL and the solubility ([1]; aqueous with cosolvent or surfactant or cyclodextrin, excipient VitE-TPGS, read-out: Limit of solubility in VitE-TPGS) was over 200 mg/mL. For the same compound, the solubility ([1]; oil or lipid, excipient Capryol 90, read-out: Limit of solubility in Capryol 90) was over 200 mg/mL, the solubility ([1]; oil or lipid, excipient Capryol PGMC, read-out: Limit of solubility in Capryol PGMC) was over 200 mg/mL and the solubility ([1]; oil or lipid, excipient Cremophor EL, read-out: Limit of solubility in Cremophor EL) was over 200 mg/mL. It also gave a solubility ([1]; oil or lipid, excipient Cremophor RH-40, read-out: Limit of solubility in Cremophor RH-40) of over 200 mg/mL, a solubility ([1]; oil or lipid, excipient Gelucire 44/14, read-out: Limit of solubility in Gelucire 44/14) of over 200 mg/mL and a solubility ([1]; oil or lipid, excipient Gelucire 50/13, read-out: Limit of solubility in Gelucire 50/13) of 150 mg/mL (≈ 252 mM). It also gave a solubility ([1]; oil or lipid, excipient Labrafac Lipo WL 1349, heating and sonication if necessary, read-out: Limit of solubility in Labrafac Lipo WL 1349) of over 200 mg/mL, a solubility ([1]; oil or lipid, excipient Labrafac PG, read-out: Limit of solubility in Labrafac PG) of over 200 mg/mL and a solubility ([1]; oil or lipid, excipient Labrafil M 1944 CS, read-out: Limit of solubility in Labrafil M 1944 CS) of over 200 mg/mL. The solubility ([1]; oil or lipid, excipient Labrafil M 2125 CS, read-out: Limit of solubility in Labrafil M 2125 CS) was over 200 mg/mL, the solubility ([1]; oil or lipid, excipient Labrafil M 2130 CS, read-out: Limit of solubility in Labrafil M 2130 CS) was over 200 mg/mL and the solubility ([1]; oil or lipid, excipient Labrasol, read-out: Limit of solubility in Labrasol) was over 200 mg/mL. It also gave a solubility ([1]; oil or lipid, excipient Lauroglycol 90, read-out: Limit of solubility in Lauroglycol 90) of over 200 mg/mL, a solubility ([1]; oil or lipid, excipient Lauroglycol FCC, read-out: Limit of solubility in Lauroglycol FCC) of over 200 mg/mL and a solubility ([1]; oil or lipid, excipient Maisine 35-1, read-out: Limit of solubility in Maisine 35-1) of over 200 mg/mL. The solubility ([1]; oil or lipid, excipient Peceol, read-out: Limit of solubility in Peceol) was over 200 mg/mL, the solubility ([1]; oil or lipid, excipient Phosal 50-PG, read-out: Limit of solubility in Phosal 50-PG) was over 200 mg/mL and the solubility ([1]; oil or lipid, excipient Phosal 53 MCT, read-out: Limit of solubility in Phosal 53 MCT) was over 200 mg/mL. For the same compound, the solubility ([1]; oil or lipid, excipient Plurol Oleique CC 497, read-out: Limit of solubility in Plurol Oleique CC 497) was over 200 mg/mL, the solubility ([1]; organic solvent or mixture, excipient Ethanol, read-out: Limit of solubility in Ethanol) was over 200 mg/mL and the solubility ([1]; organic solvent or mixture, excipient PEG-200, read-out: Limit of solubility in PEG-200) was over 200 mg/mL. The solubility ([1]; organic solvent or mixture, excipient PEG-300, read-out: Limit of solubility in PEG-300) was over 200 mg/mL, the solubility ([1]; organic solvent or mixture, excipient PEG-400, read-out: Limit of solubility in PEG-400) was over 200 mg/mL and the solubility ([1]; organic solvent or mixture, excipient Propylene Glycol, read-out: Limit of solubility in Propylene Glycol) was over 200 mg/mL. For the same compound, the solubility ([1]; organic solvent or mixture, excipient Transcutol, read-out: Limit of solubility in Transcutol) was over 200 mg/mL, the Degradation ([2]; after 15 days of storage at −20° C.) was “No significant degradation” and the Short-term stability ([2]; room temperature (about 20° C.) for 8 days) was “acceptable”. The Degradation ([2]; room temperature, by 15 days) was “approximately 9%” and the solubility [3] was over 250 mg/mL.

With `C[C@H](CCOc1cccc(CC(=O)O)c1)N(Cc1cccc(C(F)(F)F)c1Cl)CC(c1ccccc1)c1ccccc1.Cl` [Compound (II) HCl salt] the “Limit of solubility in Capmul MCM” value ([1]; excipient Capmul MCM) was 50 mg/mL, the “Limit of solubility in Capryol 90” value ([1]; excipient Capryol 90) was 150 mg/mL and the “Limit of solubility in Capryol PGMC” value ([1]; excipient Capryol PGMC) was 150 mg/mL. For the same compound, the “Limit of solubility in Cremophor EL” value ([1]; excipient Cremophor EL) was 150 mg/mL, the “Limit of solubility in Cremophor RH-40” value ([1]; excipient Cremophor RH-40) was 150 mg/mL and the “Limit of solubility in Ethanol” value ([1]; excipient Ethanol) was 200 mg/mL. The “Limit of solubility in Gelucire 44/14” value ([1]; excipient Gelucire 44/14) was 100 mg/mL, the “Limit of solubility in Gelucire 50/13” value ([1]; excipient Gelucire 50/13) was 50 mg/mL and the “Limit of solubility in Labrafil M 1944 CS” value ([1]; excipient Labrafil M 1944 CS) was 25 mg/mL. For the same compound, the “Limit of solubility in Labrafil M 2125 CS” value ([1]; excipient Labrafil M 2125 CS) was 25 mg/mL, the “Limit of solubility in Labrafil M 2130 CS” value ([1]; excipient Labrafil M 2130 CS) was 25 mg/mL and the “Limit of solubility in Labrasol” value ([1]; excipient Labrasol) was 150 mg/mL. The “Limit of solubility in Lauroglycol 90” value ([1]; excipient Lauroglycol 90) was 150 mg/mL, the “Limit of solubility in Lauroglycol FCC” value ([1]; excipient Lauroglycol FCC) was 100 mg/mL and the “Limit of solubility in Maisine 35-1” value ([1]; excipient Maisine 35-1) was 150 mg/mL. For the same compound, the “Limit of solubility in PEG-200” value ([1]; excipient PEG-200) was 200 mg/mL, the “Limit of solubility in PEG-300” value ([1]; excipient PEG-300) was 200 mg/mL and the “Limit of solubility in PEG-400” value ([1]; excipient PEG-400) was 200 mg/mL. For the same compound, the “Limit of solubility in Peceol” value ([1]; excipient Peceol) was 150 mg/mL, the “Limit of solubility in Phosal 50-PG” value ([1]; excipient Phosal 50-PG) was 200 mg/mL and the “Limit of solubility in Phosal 53 MCT” value ([1]; excipient Phosal 53 MCT) was 150 mg/mL. The “Limit of solubility in Plurol Oleique CC 497” value ([1]; excipient Plurol Oleique CC 497) was 50 mg/mL, the “Limit of solubility in Propylene Glycol” value ([1]; excipient Propylene Glycol) was 200 mg/mL and the “Limit of solubility in Transcutol” value ([1]; excipient Transcutol) was 150 mg/mL. The “Limit of solubility in Tween-20” value ([1]; excipient Tween-20) was 200 mg/mL, the “Limit of solubility in Tween-80” value ([1]; excipient Tween-80) was 200 mg/mL and the “Limit of solubility in VitE-TPGS” value ([1]; excipient VitE-TPGS) was 150 mg/mL. For the same compound, the “Solubility in Maisine 35-1:Gelucire 44/14:Lauroglycol 90 mixtures” value [4] was 150 to 200 mg/mL.
